One assay deals with T1, NEK11 (Homo sapiens, UniProt Q8NG66).
T1 construct: literature Ambit
T1 sequence (Q8NG66 1-645): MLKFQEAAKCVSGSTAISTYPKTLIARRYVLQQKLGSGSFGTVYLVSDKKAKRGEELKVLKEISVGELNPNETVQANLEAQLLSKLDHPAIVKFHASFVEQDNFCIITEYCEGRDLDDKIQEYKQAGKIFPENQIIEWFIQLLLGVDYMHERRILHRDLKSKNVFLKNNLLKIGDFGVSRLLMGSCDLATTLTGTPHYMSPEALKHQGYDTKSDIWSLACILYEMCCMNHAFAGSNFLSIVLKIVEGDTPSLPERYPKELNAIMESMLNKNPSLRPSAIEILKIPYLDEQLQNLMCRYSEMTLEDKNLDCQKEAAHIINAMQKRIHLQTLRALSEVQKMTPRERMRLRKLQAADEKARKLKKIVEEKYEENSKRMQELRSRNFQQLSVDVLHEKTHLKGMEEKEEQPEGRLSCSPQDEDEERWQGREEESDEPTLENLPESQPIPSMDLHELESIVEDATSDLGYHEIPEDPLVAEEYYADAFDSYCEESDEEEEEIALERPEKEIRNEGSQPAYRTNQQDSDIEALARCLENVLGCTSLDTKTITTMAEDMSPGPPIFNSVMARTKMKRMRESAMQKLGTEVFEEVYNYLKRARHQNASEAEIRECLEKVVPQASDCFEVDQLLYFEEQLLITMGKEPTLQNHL
Particulars: 1 μM; cited from earlier work.

The next assay deals with T2, CASK (Homo sapiens, UniProt O14936).
T2 construct: literature Ambit
T2 sequence (O14936 1-926): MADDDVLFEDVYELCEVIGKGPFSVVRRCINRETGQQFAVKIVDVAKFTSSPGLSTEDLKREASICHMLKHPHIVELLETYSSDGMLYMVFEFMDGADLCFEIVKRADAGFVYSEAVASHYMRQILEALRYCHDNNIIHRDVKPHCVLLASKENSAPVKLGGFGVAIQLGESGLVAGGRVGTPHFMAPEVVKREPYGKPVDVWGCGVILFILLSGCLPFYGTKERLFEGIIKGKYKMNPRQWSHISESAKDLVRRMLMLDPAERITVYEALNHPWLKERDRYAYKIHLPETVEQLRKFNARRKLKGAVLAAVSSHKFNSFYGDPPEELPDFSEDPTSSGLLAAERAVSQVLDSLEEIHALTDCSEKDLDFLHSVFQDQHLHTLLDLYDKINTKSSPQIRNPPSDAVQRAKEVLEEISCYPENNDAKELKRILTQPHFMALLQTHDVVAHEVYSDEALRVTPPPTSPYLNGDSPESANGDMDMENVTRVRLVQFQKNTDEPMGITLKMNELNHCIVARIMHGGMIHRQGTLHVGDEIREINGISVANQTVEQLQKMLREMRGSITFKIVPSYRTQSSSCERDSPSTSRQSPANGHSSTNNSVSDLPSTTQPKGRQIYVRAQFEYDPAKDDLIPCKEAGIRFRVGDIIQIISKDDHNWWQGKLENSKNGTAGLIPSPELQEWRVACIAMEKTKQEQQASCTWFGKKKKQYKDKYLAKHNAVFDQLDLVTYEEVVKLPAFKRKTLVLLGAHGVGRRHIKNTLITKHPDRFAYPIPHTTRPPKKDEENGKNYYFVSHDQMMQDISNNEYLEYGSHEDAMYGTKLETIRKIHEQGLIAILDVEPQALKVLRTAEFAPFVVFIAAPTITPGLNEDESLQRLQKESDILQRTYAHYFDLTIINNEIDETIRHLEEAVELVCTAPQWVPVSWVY
The conditions noted are these: 1 μM; cited from earlier work.

Assay [1] deals with T3, BMX (Homo sapiens, UniProt P51813).
T3 sequence (P51813 1-675): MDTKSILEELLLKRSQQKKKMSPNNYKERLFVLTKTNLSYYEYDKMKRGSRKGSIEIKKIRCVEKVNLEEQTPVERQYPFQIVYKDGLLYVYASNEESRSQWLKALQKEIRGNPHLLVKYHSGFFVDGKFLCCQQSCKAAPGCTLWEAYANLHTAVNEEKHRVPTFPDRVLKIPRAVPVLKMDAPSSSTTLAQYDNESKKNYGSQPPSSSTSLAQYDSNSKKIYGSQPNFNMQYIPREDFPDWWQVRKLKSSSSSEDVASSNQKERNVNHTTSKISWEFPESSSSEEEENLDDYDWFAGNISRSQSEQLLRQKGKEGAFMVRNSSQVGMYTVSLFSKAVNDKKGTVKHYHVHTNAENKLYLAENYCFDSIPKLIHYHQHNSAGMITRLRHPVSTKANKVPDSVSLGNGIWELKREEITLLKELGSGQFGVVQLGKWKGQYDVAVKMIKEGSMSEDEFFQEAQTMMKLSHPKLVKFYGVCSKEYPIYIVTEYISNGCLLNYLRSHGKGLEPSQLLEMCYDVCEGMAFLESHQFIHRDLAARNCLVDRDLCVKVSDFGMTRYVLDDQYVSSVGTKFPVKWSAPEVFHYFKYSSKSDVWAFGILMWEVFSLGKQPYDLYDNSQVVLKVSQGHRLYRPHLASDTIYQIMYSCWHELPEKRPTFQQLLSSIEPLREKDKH
The conditions noted are these: at Km for ATP; cited from earlier work.

In the next assay the target is T4, MINK (Homo sapiens, UniProt Q8N4C8).
T4 construct: literature Ambit
T4 sequence (Q8N4C8 whole entry): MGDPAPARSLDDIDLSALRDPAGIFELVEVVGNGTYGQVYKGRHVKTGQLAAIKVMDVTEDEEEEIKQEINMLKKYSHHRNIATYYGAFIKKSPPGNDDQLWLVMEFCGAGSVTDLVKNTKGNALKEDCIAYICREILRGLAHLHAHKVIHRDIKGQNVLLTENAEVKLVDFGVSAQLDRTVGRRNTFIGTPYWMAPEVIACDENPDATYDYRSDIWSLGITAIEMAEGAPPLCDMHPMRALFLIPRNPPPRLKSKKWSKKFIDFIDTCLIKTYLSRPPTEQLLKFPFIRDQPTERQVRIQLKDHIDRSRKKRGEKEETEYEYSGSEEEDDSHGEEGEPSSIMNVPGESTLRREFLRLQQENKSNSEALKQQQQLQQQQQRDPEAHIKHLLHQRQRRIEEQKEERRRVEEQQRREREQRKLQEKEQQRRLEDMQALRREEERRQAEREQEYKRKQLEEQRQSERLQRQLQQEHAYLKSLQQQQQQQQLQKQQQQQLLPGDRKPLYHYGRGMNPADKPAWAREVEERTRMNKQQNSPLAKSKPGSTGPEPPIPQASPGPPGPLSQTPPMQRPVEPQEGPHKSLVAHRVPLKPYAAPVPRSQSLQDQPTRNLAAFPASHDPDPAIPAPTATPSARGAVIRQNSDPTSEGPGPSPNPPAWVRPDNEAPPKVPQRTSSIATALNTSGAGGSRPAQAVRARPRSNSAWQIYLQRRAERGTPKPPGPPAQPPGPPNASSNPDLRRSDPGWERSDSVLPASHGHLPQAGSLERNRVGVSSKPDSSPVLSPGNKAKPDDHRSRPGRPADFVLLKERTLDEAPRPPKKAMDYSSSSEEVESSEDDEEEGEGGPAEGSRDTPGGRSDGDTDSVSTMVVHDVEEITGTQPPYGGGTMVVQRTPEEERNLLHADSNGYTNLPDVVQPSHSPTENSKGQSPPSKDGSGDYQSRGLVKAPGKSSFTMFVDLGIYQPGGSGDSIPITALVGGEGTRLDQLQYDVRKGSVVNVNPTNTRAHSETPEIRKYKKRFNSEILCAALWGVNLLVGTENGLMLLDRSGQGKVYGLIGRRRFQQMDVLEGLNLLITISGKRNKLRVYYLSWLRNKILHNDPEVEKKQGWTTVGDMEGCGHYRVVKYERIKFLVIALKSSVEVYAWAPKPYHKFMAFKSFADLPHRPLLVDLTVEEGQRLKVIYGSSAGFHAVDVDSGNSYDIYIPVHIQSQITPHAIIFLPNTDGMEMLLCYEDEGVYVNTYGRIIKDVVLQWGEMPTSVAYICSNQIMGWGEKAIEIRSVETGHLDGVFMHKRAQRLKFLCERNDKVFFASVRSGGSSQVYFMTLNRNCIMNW
Particulars: cited from earlier work.

For another assay, the target named is T5, PDGFRB (Homo sapiens, UniProt P09619).
T5 construct: literature Ambit
T5 sequence (P09619 33-1106): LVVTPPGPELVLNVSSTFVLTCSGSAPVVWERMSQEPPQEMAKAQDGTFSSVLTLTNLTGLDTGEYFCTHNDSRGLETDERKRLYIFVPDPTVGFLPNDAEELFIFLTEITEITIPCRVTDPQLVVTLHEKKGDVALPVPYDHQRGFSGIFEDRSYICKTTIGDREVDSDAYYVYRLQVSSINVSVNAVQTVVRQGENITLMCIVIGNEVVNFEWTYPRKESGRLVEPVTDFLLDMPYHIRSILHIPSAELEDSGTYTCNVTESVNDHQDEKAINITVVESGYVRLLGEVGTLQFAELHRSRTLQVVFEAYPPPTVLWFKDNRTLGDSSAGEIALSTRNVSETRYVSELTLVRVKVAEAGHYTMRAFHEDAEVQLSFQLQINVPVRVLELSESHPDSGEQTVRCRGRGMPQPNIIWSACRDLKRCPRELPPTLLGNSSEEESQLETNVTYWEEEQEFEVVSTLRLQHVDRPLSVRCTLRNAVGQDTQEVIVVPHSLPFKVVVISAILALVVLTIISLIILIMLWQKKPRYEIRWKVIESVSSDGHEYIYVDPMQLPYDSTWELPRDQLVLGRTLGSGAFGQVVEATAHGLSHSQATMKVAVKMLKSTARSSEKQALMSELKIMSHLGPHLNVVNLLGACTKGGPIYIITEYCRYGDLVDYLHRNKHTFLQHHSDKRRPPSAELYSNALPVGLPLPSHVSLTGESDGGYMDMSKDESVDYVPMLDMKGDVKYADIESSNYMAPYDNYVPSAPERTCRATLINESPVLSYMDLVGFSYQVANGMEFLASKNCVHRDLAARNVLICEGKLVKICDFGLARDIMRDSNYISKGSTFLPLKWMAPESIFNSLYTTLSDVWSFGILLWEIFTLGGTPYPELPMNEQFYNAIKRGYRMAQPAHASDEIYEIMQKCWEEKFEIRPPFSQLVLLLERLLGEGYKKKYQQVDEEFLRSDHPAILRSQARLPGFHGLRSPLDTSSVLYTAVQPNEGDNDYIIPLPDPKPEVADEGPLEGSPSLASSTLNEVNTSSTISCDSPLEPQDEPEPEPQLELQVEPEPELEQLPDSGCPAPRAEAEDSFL
Particulars: 1 μM; cited from earlier work.

The target of another assay is T6, TEC (Homo sapiens, UniProt P42680).
T6 sequence (P42680 1-631): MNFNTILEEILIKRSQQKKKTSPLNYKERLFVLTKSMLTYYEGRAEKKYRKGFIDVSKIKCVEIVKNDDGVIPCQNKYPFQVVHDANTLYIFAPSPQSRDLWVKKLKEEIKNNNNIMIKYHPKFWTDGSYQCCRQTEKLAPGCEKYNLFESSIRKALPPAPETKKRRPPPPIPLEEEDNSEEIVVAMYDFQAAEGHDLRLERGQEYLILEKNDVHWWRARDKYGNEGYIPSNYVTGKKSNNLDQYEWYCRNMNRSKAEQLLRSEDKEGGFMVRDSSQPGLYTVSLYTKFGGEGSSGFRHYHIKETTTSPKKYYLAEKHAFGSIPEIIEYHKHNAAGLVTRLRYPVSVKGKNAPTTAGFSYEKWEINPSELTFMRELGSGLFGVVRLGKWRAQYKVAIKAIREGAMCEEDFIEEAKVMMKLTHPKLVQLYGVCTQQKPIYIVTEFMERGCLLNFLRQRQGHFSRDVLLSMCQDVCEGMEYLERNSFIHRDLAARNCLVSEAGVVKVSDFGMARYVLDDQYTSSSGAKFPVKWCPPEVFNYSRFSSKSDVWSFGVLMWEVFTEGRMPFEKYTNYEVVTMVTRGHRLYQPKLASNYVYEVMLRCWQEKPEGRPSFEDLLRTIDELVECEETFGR
In words: KINOMEscan competition binding assay, Kd.

In another assay the target is JAK3 (Homo sapiens, UniProt P52333). In words: KINOMEscan competition binding assay, Kd.
Sequence of JAK3 (P52333 814-1124 limits assumed): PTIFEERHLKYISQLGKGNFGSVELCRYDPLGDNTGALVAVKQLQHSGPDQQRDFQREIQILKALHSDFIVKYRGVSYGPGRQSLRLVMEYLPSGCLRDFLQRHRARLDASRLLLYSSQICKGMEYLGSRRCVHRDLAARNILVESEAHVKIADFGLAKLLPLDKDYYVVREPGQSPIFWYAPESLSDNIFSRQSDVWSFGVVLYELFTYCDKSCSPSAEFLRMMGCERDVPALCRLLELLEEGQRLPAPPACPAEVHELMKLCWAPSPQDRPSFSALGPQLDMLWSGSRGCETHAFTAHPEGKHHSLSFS
Another assay addresses BTK (Homo sapiens, UniProt Q06187). Put plainly: KINOMEscan competition binding assay, Kd.
Assay [2] concerns the target T3, BMX. Put plainly: KINOMEscan competition binding assay, Kd. On the set-up: DNA tag for qPCR (T7 phage display or DNA tag added after HEK-293 expression); host or cells: E. coli BL21-derived host (T7 phage) or HEK-293. An excerpt:
The Hill Slope was set to −1.

Assay [3] relates to systemic lupus erythematosus (SLE). The conditions noted are these: mouse model of SLE; cited from earlier work.
For assay [4], the system named is arthritis. The conditions noted are these: mice; cited from earlier work.
Another assay relates to CD69 expression. Particulars: oral 3, 30, 100 mg/kg, cited from earlier work.
The subject of assay [5] is histamine release in mast cells. Particulars: read-out: IC50 IgE-Fce cross-linking induced histamine release; cited from earlier work.
Assay [6] deals with adjuvant-induced arthritis. Particulars: rat AIA, combination; cited from earlier work.
The test system of assay [7] is arthritis. The conditions noted are these: 100 mg/kg oral, preventive mode; cited from earlier work.
The test system of assay [8] is arthritis. The conditions noted are these: cited from earlier work.
For assay [9], the system named is TNFα release in monocytes. Particulars: read-out: IC50 IgG-FcγR mediated TNFα release; cited from earlier work.
Assay [10] relates to CD69 expression in B cells. Particulars: human whole blood; read-out: IC50 IgM-stimulated CD69 expression in B cells; cited from earlier work.
Assay [11] has as its system hypersensitive immune responses. Particulars: rPCA, 30 mg/kg; cited from earlier work.

Where two headings read alike, the source gives them in different places.

Sequence of BTK (Q06187 whole entry): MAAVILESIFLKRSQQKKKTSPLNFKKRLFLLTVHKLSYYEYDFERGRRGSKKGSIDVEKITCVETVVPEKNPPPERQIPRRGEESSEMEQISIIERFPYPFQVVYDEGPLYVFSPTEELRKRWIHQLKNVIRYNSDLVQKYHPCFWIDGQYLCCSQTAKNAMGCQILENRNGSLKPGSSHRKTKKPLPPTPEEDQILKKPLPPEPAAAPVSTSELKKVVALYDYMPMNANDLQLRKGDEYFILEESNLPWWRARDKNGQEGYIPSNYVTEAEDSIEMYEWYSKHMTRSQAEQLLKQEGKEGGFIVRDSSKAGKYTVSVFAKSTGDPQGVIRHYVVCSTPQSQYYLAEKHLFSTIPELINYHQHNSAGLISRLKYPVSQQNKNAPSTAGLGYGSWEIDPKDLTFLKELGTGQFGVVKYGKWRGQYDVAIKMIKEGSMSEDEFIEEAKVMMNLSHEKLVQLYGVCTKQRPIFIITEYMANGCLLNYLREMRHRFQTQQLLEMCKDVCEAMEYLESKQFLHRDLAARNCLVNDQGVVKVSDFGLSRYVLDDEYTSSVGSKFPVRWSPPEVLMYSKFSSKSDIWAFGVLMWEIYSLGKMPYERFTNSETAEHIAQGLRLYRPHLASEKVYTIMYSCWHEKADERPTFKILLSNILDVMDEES
Procedure for BTK: (§1) The assay is performed by combining three components: DNA-tagged kinase; immobilized ligand; and a test compound. The ability of the test compound to compete with the immobilized ligand is measured via quantitative PCR of the DNA tag. The kinase-tagged T7 phage strains were prepared in an E. coli host derived from the BL21 strain. E. coli were grown to log-phase and infected with T7 phage and incubated with shaking at 32° C. until lysis. The lysates were centrifuged and filtered to remove cell debris. The remaining kinases were produced in HEK-293 cells and subsequently tagged with DNA for qPCR detection. […] The liganded beads were blocked with excess biotin and washed with blocking buffer (SeaBlock (Pierce), 1% BSA, 0.05% Tween 20, 1 mM DTT) to remove unbound ligand and to reduce non-specific binding. […] All reactions were performed in polystyrene 96-well plates in a final volume of 0.135 ml. […] The kinase concentration in the eluates was measured by qPCR. An 11-point 3-fold serial dilution of each test compound was prepared in 100% DMSO at 100× final test concentration and subsequently diluted to 1× in the assay (final DMSO concentration=1%). […] Binding constants (Kds) were calculated with a standard dose-response curve using the Hill equation: Response=Background+(Signal−Background)/[1+(Kd^Hill Slope/Dose^Hill Slope)]. The Hill Slope was set to −1. […]
Procedure for JAK3: as §1
Procedure for TEC: as §1

Turning to `Cc1c(NC(=O)c2ccc(C(C)(C)C)cc2)cccc1-c1cn(C)c(=O)c(Nc2ccc(C(=O)N3CCOCC3)cc2)n1` [CGI-1746], the “displacement of control ligand, NEK11” value on NEK11 was 59%. In addition, the “displacement of control ligand, CASK” value on CASK is 69%. In addition, the half-maximal inhibitory concentration (IC50) at BMX [1] was 1870 nM. In addition, the “displacement of control ligand, MINK” value at MINK (1 μM) is reported as 77%. Besides, the equilibrium dissociation constant (Kd) on MINK (read-out: Kd MINK1) is 40000 nM. Further, the “displacement of control ligand, PDGFRB” value on PDGFRB is reported as 59%.
Consider `C=CC(=O)Nc1cccc(Nc2nc(-c3cccc(-n4ncc5cc(C(C)(C)C)cc(F)c5c4=O)c3CO)cn(C)c2=O)c1` [CY-130526], for which the Kd came out at 2400 nM at TEC, 14000 nM on JAK3, 0.86 nM on BTK and 1300 nM at BMX [2]. Further, the “selectivity for BTK over TEC, BMX” value on BTK (kinases inhibited the most next to BTK) is more than 1000 fold.
Turning to `C=CC(=O)N1CCCC(n2nc(-c3ccc(Oc4ccccc4)cc3)c3c(N)ncnc32)C1` (stereo not drawn) [PCI-32765], the “auto-antibody production and development of kidney disease” value in [3] is listed as “inhibited”. Moreover, in the assay with arthritis [4], the course of arthritis entry was “can reverse” and the “level of circulating autoantibodies” value is given as “reduces”.
As for `CN1CCN(c2ccc(Nc3cc(-c4cccc(-n5ccc6cc(C7CC7)cc(F)c6c5=O)c4CO)cn(C)c3=O)nc2)CC1` [RN-486], the “inhibition of ex vivo anti-IgD stimulated CD69 expression” value in the assay with CD69 expression (3 and 6 h postdose, all doses) is recorded as “completely inhibited”; in the assay with CD69 expression (24 h postdose), 50-80%. Also, the results for the IC50 in assay [5], in assay [9] and in assay [10] were 29.2 nM, 4 nM and 17 nM, respectively. Moreover, the “effect with low dose methotrexate” value in [6] was “additive effects”. The “inhibition of arthritis as measured by clinical scores” value in the assay on arthritis [7] is “complete inhibition”. Also, the disease progression result in the assay on arthritis [8] (mCIA and mCAIA models) is “dose-dependently inhibits”. Further, in the assay with arthritis [8] (therapeutic mode, 30 mg/kg), the progression of disease entry is on record as “did not show progression of disease”. For the same molecule, in assay [11], the “effect in blocking hypersensitive immune responses” value is recorded as 91%.

The IC50 is the concentration that inhibits the measured activity by half. What is called Kd is a measure of binding affinity in units of concentration.

The record behind these values is patent US20160214963A1, “INHIBITORS OF BRUTON'S TYROSINE KINASE” (Beyond Oncology Pharmaceutical LLC, priority 2013, published 2016).
